Data set [1] is described as follows: Bioavailability in rat after 30 minutes at an oral dose of 2.5 mg/kg. To be noted: plasma. The format is ADME, organism-based.
In data set [2] the target is T1, Cholecystokinin receptor type A (Rattus norvegicus, UniProt P30551).
T1 sequence (P30551 whole entry): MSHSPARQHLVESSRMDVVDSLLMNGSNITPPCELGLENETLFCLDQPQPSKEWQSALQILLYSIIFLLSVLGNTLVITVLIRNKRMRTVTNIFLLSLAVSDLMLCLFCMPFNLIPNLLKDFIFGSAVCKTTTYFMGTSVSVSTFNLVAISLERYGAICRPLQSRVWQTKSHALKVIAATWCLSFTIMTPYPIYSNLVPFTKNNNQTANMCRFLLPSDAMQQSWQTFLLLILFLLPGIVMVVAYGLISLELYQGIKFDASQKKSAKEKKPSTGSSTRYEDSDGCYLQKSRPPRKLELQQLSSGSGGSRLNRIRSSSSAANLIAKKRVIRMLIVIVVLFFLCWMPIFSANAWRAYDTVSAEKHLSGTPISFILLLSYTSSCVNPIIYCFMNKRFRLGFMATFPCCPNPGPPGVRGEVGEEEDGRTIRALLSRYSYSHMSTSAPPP
Description: Inhibition of binding of [125I]CCK-8 to cholecystokinin type A receptor in rat pancreatic tissue.

For a further data set, the species on record is Cavia porcellus. Description: Selectivity ratio between CCK-B and CCK-A receptor. Also on record: reference not given here.
Data set [3] can be described thus: Inhibition of binding of [125I]-CCK-8 to the cholecystokinin type B receptor.
Data set [4] is described as follows: Bioavailability in rat after 120 minutes at an oral dose of 2.5 mg/kg. To be noted: plasma. The format is ADME, organism-based.
Data set [5] relates to Mus musculus. Description: Effective dose required to antagonise pentagastrin stimulated acid secretion in mouse when administered iv 60-80 min prior to pentagastrin. In kind it is functional.
The test system of data set [6] is Mus musculus. Description: Effective dose required to antagonise pentagastrin stimulated acid secretion in mouse when administered orally 85-100 min prior to pentagastrin. The format is functional. The note with it: po.
The subject of data set [7] is Mus musculus. Description: Effective dose required to antagonise pentagastrin stimulated acid secretion in mouse when administered iv 5 min prior to pentagastrin. In kind it is functional.

Molecules are shown by their SMILES.

As usually defined, the IC50 is the concentration needed to halve the response being measured. In general, ED50 refers to the dose that gives a 50% effect, or the effect in half of the subjects.

As to `Cc1cccc(NC(=O)NC2N=C(c3ccccc3)c3ccccc3N(CCN(C)C)C2=O)c1` (racemic), the concentration at 0.5 h in data set [1] came out at 75 ng/mL. For the same compound, the IC50 in data set [2] worked out at 1890 nM. The Selectivity ratio in the data set filed under Cavia porcellus turned out to be 73.
In turn, `CCOC(=O)CN1C(=O)C(NC(=O)c2ccc(Cl)cc2)N=C(c2ccccc2F)c2ccccc21` (racemic) yielded a 50% inhibitory concentration (IC50) in data set [3] of 1900 nM. For the same compound, the Selectivity ratio in the data set listed under Cavia porcellus stood at 0.06.
With `Cc1cccc(NC(=O)N[C@@H]2N=C(c3ccccc3)c3ccccc3N(C)C2=O)c1` [L-365260], the concentration at 0.5 h in data set [1] turned out to be 172 ng/mL. Moreover, the concentration at 2 h in data set [4] came to 194 ng/mL.
Consider `CN1C(=O)C(NC(=O)Nc2cccc(C(F)(F)F)c2)N=C(c2ccccc2)c2ccccc21` (centres undefined), for which, in data set [1], the concentration at 0.5 h was found to be 120 ng/mL. In addition, the concentration at 2 h in data set [4] is 102 ng/mL. Also, in data set [2], the 50% inhibitory concentration (IC50) amounted to 740 nM. The Selectivity ratio in the data set filed under Cavia porcellus was 195.
`CCOC(=O)CN1C(=O)C(NC(=O)Nc2ccc(Cl)cc2)N=C(c2ccccc2F)c2ccccc21` (racemic) yielded a half-inhibitory concentration (IC50) in data set [3] of 1.2 nM. Moreover, the values for the 50% effective dose (ED50) in the data set on Mus musculus [5], in the data set with Mus musculus [6] and in the data set on Mus musculus [7] were > 2 mg/kg, 6 mg/kg and 0.7 mg/kg, respectively. Besides, in the data set listed under Cavia porcellus, the Selectivity ratio turned out to be 183.
Consider `Cc1cccc(NC(=O)NC2N=C(c3ccccc3)c3ccccc3N(CCO)C2=O)c1` (racemic), for which the concentration at 0.5 h in data set [1] was 156 ng/mL. In data set [4], the concentration at 2 h amounted to 95 ng/mL. Moreover, the IC50 in data set [2] was found to be 270 nM. In addition, the Selectivity ratio in the data set listed under Cavia porcellus was determined as 6.
Taken in the same sequence, the figures for `Cc1cccc(NC(=O)NC2N=C(c3cccnc3)c3ccccc3N(C)C2=O)c1` (racemic) were 219 ng/mL, 191 ng/mL, 2300 nM and 25.
